Data set [1] addresses SARS-CoV-2 Main Protease (SARS-CoV-2) (UniProt P0DTD1).
For data set [2] the target is unchanged. This is another data set of the same source.

Take `CN(C(=O)Cc1noc2ccccc12)c1ccc(NC(=O)OC(C)(C)C)cc1`: the relative solubility at 20 uM worked out at 0.98 and the relative solubility at 100 uM came to 0.7. The inhibition in data set [1] (20.0 µM) was 0%. The inhibition in data set [2] (20.0 µM) is -14.5%. The inhibition in data set [2] (50.0 µM) was -11.9%.
In turn, `C=CC(=O)N(c1ccc(S(F)(F)(F)(F)F)cc1)C(C(=O)Nc1ccc(OC)cc1)c1cccnc1` (stereo unspecified) yielded a relative solubility at 20 uM of 0.83 and a relative solubility at 100 uM of 0.71. Further, the inhibition in data set [1] (20.0 µM) came out at 10.4%. The inhibition in data set [2] (20.0 µM) amounted to 15.7%. Besides, in data set [2] (50.0 µM), the inhibition came out at 30.6%.
Take `CC1(C)CC(C(=O)Nc2nncn2C2CC2)c2ccccc2O1` (stereo unspecified): the relative solubility at 20 uM came out at 1 and the relative solubility at 100 uM was 0.98. In addition, the inhibition in data set [1] (50.0 µM) was determined as 0%. The inhibition in data set [2] (20.0 µM) was -0.71%. Besides, in data set [2] (50.0 µM), the inhibition is -5.02%.
`C=CC(=O)N(c1ccc(C(C)(C)C)cc1)C(C(=O)NCCCOC)c1cccnc1` (stereo unspecified) registered a relative solubility at 20 uM of 0.99 and a relative solubility at 100 uM of 0.98. For the same compound, the inhibition in data set [1] (20.0 µM) is 12.2%. In addition, in data set [1] (50.0 µM), the inhibition is 39.5%. For the same compound, the inhibition in data set [2] (20.0 µM) amounted to 3.35%. In addition, the inhibition in data set [2] (50.0 µM) was 19.4%.
`COc1ccc(C2CC(c3ccccc3)=NN2C(=O)CCl)cc1OC` (stereo unspecified) yielded a relative solubility at 20 uM of 0.99 and a relative solubility at 100 uM of 0.85. For the same compound, in data set [1], the 50% inhibitory concentration (IC50) turned out to be 421 nM. The inhibition in data set [1] (50.0 µM) is 100%. Moreover, the inhibition in data set [2] (20.0 µM) was determined as 100%. Also, in data set [2] (50.0 µM), the inhibition was 99.6%.
`O=C(C1CCCN1C(=O)c1ccccc1)N1CCOCC1` (stereo unspecified) registered a relative solubility at 20 uM of 1 and a relative solubility at 100 uM of 1. Moreover, in data set [1] (20.0 µM), the inhibition was 0%. Moreover, the inhibition in data set [1] (50.0 µM) was determined as 0%. For the same compound, the inhibition in data set [2] (50.0 µM) is -28%.
For `C=CC(=O)N(c1ccc(SC)cc1)C(C(=O)Nc1ccc(OC)cc1)c1cccnc1` (stereo unspecified), the relative solubility at 20 uM was found to be 0.91 and the relative solubility at 100 uM was 0.77. Further, in data set [1] (20.0 µM), the inhibition was determined as 0%. Further, in data set [2] (20.0 µM), the inhibition stood at 13.5%. Moreover, the inhibition in data set [2] (50.0 µM) amounted to 27%.
For `O=C(Nc1cccnc1)Nc1cncc(Cl)c1`, the relative solubility at 20 uM is 1 and the relative solubility at 100 uM was found to be 1. The inhibition in data set [1] (20.0 µM) came out at 0%. In addition, the inhibition in data set [1] (50.0 µM) is -0.075%. Further, the inhibition in data set [2] (50.0 µM) was found to be 16.8%.
The compound `Cc1cc(C)c(C)c(S(=O)(=O)N2CCN(C(=O)c3cc(=O)[nH]c4ccccc34)CC2)c1C` registered a relative solubility at 20 uM of 0.75 and a relative solubility at 100 uM of 0.65. Besides, the IC50 in data set [1] was determined as 3750 nM. Further, the inhibition in data set [1] (20.0 µM) came to 81.7%. For the same compound, the inhibition in data set [1] (50.0 µM) stood at 88.1%. Further, the inhibition in data set [2] (20.0 µM) worked out at 84.4%. Besides, the inhibition in data set [2] (50.0 µM) is 92.9%.
Take `Cc1ccncc1N(C)C(=O)[C@@H]1C[C@H]1CF` (stereo in doubt): the relative solubility at 20 uM stood at 1.01 and the relative solubility at 100 uM came to 1.01. In data set [1] (50.0 µM), the inhibition worked out at 4.57%. The inhibition in data set [2] (20.0 µM) is -7.38%. The inhibition in data set [2] (50.0 µM) was 1.67%.
Consider `NS(=O)(=O)c1ccc(N2CCC(CN3CCCCC3)CC2)cc1`, for which the relative solubility at 20 uM is 1 and the relative solubility at 100 uM was determined as 1.01. Further, in data set [1] (50.0 µM), the inhibition was determined as 22.7%. Moreover, the inhibition in data set [2] (20.0 µM) is -23.1%. For the same compound, the inhibition in data set [2] (50.0 µM) was -2.58%.
In turn, `Cc1ccncc1NC(=O)Cc1ccc(S(N)(=O)=O)cc1` showed a relative solubility at 20 uM of 1 and a relative solubility at 100 uM of 1. Also, the inhibition in data set [1] (20.0 µM) stood at 6.42%. In addition, in data set [1] (50.0 µM), the inhibition was -0.94%. Further, in data set [2] (20.0 µM), the inhibition was found to be 4.76%. Further, in data set [2] (50.0 µM), the inhibition stood at 10.9%.
In the case of `COc1ncccc1N(C)C(=O)C1CCOc2ccc(Cl)cc21` (stereo unspecified), the relative solubility at 20 uM was 1 and the relative solubility at 100 uM is 0.98. Moreover, the inhibition in data set [1] (50.0 µM) is 0%. For the same compound, the inhibition in data set [2] (20.0 µM) is -2.61%. The inhibition in data set [2] (50.0 µM) turned out to be 2.54%.
Consider `CC(C)c1ncncc1NC(=O)C(C)c1cccc(Cl)c1` (stereo unspecified), for which the relative solubility at 20 uM was 1.01 and the relative solubility at 100 uM is 1. Moreover, the inhibition in data set [1] (50.0 µM) was determined as 1.6%. Further, in data set [2] (20.0 µM), the inhibition amounted to 6.43%. The inhibition in data set [2] (50.0 µM) is 19%.
For `Cc1nnc(NC(=O)Cc2cccc(Cl)c2F)n1C`, in that order: 1.01, 1, 0%, -12.7% and -10.8%.
`O=C(NCCN1CCN(C(=O)CCl)CC1)c1ccccc1` gave a relative solubility at 20 uM of 1 and a relative solubility at 100 uM of 1.01. Besides, the inhibition in data set [1] (20.0 µM) came to 0.871%. The inhibition in data set [2] (20.0 µM) is 0.205%. The inhibition in data set [2] (50.0 µM) is 18.1%.
For the compound `NC(=O)[C@@H]1CN(C2CCOCC2)C[C@H]1c1ccccc1` (stereo in doubt), the relative solubility at 20 uM came to 1 and the relative solubility at 100 uM turned out to be 1. The inhibition in data set [1] (20.0 µM) came out at 0%. In data set [1] (50.0 µM), the inhibition was 0%. Moreover, in data set [2] (20.0 µM), the inhibition was -22.2%. Moreover, the inhibition in data set [2] (50.0 µM) is -23%.
The compound `Cn1cnnc1CNC(=O)Nc1cc(C(F)(F)F)c[nH]c1=O` came in with a relative solubility at 20 uM of 1 and a relative solubility at 100 uM of 1. In data set [1] (50.0 µM), the inhibition turned out to be 3.33%. Besides, the inhibition in data set [2] (20.0 µM) is 7.84%. Besides, the inhibition in data set [2] (50.0 µM) was 14.8%.
On to `C=CC(=O)N(c1ccc(C(C)(C)CC)cc1)C(C(=O)Nc1ccc(Cl)cc1)c1cccnc1` (stereo unspecified), for which the relative solubility at 20 uM came out at 0.82 and the relative solubility at 100 uM was determined as 0.68. Further, the inhibition in data set [1] (20.0 µM) is 11.3%. Further, the inhibition in data set [2] (20.0 µM) was found to be 16.5%. The inhibition in data set [2] (50.0 µM) came to 22.7%.

In general, inhibition refers to the change of the read-out against control, counted positive when it falls. The IC50 is the point on the concentration scale where inhibition reaches its midpoint.

Values taken from the COVID Moonshot data (paper PMC11187573), “Identification of SARS-CoV-2 Mpro inhibitors through deep reinforcement learning for de novo drug design and computational chemistry approaches” (RSC Medicinal Chemistry, 2024).
